Data published in US20230000870A1, “METHODS OF TREATING CANCER IN BIOMARKER-IDENTIFIED PATIENTS WITH INHIBITORS OF CYCLIN-DEPENDENT KINASE 7 (CDK7)” (Syros Pharmaceuticals, Inc., priority 2019, published 2023).

How the values were obtained:
[1] = target: CDK2/Cyclin E1 complex (Homo sapiens, UniProt P24941); experiment: CDK2 kinase inhibition assay (Caliper/LabChip EZ Reader); type: biochemical; details: CDK2/Cyclin E1 0.5 nM, ATP 2 mM, 35 min at 27° C.
Method: (§1) Compounds of the invention were assayed for inhibition of CDK7, CDK9, CDK12, and CDK2 activity at Biortus Biosciences (Jiangyin, Jiangsu Province, P.R. of China) using kinase assays for each CDK developed with a Caliper/LabChip EZ Reader (Perkin Elmer, Waltham, Mass.).
(§2) Furthermore, the CDK9 inhibition assay used CDK9/Cyclin T1 complex (8 nM) and “5-FAM-CDK9tide” peptide substrate (2 μM, synthesized fluorophore-labeled peptide with the following sequence: 5-FAM-GSRTPMY-NH2 where 5-FAM is defined above and NH2 signifies a C-terminal amide) with 10 mM MgCl2 in the buffer composition listed above. The CDK12 inhibition assay used CDK12 (aa686-1082)/Cyclin K complex (50 nM) and “5-FAM-CDK9tide” (2 μM) as defined above, with 2 mM MgCl2 in the buffer composition above. Additionally, the CDK2 inhibition assay used CDK2/Cyclin E1 complex (0.5 nM) and “5-FAM-CDK7tide” (2 μM) as defined above, with 2 mM MgCl2 in the buffer composition listed above.
(§3) The incubation period at 27° C. for each CDK inhibition assay was chosen such that the fraction of phosphorylated peptide product produced in each assay, relative to the total peptide concentration, was approximately 20% (±5%) for the uninhibited kinase (35 min. for CDK7, 35 min. for CDK2, 3 hr. for CDK12, 15 min. for CDK9).

[2] = target: CDK7/Cyclin H/MAT1 complex (Homo sapiens, UniProt P50613); experiment: CDK7 kinase inhibition assay (Caliper/LabChip EZ Reader); type: biochemical; details: CDK7/Cyclin H/MAT1 6 nM, ATP 2 mM, 35 min at 27° C.
Sequence of CDK7/Cyclin H/MAT1 complex (P50613 whole entry): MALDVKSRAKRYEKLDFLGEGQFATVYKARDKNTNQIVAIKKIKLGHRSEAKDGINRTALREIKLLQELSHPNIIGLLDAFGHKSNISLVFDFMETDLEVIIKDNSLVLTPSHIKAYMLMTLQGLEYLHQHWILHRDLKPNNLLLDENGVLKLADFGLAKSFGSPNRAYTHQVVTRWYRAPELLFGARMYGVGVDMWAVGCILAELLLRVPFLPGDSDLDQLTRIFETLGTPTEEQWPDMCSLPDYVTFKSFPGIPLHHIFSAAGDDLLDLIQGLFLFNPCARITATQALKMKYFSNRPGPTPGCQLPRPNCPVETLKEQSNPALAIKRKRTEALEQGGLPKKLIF
Sequence of CDK7/Cyclin H/MAT1 complex (P51946 whole entry partner): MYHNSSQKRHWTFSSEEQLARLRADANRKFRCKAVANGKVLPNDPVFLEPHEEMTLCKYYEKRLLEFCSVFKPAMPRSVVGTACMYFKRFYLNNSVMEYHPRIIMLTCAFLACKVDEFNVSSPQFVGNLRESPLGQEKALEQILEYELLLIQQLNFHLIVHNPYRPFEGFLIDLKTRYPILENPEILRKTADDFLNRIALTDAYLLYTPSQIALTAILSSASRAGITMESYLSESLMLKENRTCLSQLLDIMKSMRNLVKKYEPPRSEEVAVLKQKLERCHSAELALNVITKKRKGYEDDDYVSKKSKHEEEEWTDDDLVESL
Sequence of CDK7/Cyclin H/MAT1 complex (P51948 whole entry partner): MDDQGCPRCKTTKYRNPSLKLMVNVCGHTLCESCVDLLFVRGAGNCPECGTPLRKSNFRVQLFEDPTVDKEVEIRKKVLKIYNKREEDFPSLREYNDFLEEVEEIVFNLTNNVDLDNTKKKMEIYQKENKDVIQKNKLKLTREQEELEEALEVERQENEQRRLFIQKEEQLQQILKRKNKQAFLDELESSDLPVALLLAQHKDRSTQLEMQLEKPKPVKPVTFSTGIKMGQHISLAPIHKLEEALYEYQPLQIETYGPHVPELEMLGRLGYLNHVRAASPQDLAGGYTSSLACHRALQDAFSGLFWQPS
Method: as §1, §2, §3

[3] = target: CDK9/Cyclin T1 complex (Homo sapiens, UniProt P50750); experiment: CDK9 kinase inhibition assay (Caliper/LabChip EZ Reader); type: biochemical; details: CDK9/Cyclin T1 8 nM, ATP 2 mM, 15 min at 27° C.
Sequence of CDK9/Cyclin T1 complex (P50750 whole entry): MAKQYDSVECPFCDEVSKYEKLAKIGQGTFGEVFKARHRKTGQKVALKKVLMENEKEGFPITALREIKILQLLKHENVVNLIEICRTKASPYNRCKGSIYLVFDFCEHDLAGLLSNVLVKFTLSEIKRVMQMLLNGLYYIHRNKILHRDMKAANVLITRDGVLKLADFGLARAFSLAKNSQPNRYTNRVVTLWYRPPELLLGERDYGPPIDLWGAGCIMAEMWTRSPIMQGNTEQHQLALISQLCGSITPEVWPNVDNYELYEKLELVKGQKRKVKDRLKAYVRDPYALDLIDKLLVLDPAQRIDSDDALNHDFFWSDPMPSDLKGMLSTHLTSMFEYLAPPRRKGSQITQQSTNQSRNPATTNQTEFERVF
Sequence of CDK9/Cyclin T1 complex (O60563 whole entry partner): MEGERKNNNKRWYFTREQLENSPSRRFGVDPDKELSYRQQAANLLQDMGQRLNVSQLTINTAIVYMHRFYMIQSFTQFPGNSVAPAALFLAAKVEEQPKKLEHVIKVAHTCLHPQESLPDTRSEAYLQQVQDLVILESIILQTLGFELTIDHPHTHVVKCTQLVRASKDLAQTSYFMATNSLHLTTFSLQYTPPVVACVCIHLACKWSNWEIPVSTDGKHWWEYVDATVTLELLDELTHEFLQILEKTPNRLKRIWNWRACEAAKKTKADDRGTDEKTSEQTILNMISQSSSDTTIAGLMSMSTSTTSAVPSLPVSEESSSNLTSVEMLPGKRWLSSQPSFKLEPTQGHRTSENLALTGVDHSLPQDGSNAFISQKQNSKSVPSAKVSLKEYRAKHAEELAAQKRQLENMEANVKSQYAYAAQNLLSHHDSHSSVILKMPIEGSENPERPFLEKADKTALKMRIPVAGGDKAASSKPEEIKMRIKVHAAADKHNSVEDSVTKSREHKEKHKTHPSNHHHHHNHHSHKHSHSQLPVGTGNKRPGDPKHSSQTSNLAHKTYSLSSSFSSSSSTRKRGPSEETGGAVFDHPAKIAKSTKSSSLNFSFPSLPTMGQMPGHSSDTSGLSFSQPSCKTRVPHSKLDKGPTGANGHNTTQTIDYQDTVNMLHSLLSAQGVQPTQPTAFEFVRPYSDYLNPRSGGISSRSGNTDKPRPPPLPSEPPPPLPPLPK
Method: as §1, §2, §3

[4] = target: T1, CDK12 (aa686-1082)/Cyclin K complex (Homo sapiens, UniProt Q9NYV4); experiment: CDK12 kinase inhibition assay (Caliper/LabChip EZ Reader); type: biochemical; details: CDK12 (aa686-1082)/Cyclin K 50 nM, ATP 2 mM, 3 hr at 27° C.
T1 construct: CDK12 (aa686-1082)/Cyclin K complex
T1 sequence (Q9NYV4 686-1082): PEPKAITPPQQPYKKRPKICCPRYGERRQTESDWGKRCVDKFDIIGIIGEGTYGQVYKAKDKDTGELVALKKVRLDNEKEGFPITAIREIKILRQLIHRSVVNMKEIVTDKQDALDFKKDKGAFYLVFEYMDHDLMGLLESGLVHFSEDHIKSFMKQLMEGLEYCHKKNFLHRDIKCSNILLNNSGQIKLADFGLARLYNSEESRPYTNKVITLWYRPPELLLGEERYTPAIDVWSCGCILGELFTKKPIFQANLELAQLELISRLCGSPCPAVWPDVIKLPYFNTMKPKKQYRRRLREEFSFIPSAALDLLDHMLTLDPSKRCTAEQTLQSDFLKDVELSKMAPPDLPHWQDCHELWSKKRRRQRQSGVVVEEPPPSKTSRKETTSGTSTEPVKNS
T1 sequence (O75909 whole entry partner, the tested form may be a part): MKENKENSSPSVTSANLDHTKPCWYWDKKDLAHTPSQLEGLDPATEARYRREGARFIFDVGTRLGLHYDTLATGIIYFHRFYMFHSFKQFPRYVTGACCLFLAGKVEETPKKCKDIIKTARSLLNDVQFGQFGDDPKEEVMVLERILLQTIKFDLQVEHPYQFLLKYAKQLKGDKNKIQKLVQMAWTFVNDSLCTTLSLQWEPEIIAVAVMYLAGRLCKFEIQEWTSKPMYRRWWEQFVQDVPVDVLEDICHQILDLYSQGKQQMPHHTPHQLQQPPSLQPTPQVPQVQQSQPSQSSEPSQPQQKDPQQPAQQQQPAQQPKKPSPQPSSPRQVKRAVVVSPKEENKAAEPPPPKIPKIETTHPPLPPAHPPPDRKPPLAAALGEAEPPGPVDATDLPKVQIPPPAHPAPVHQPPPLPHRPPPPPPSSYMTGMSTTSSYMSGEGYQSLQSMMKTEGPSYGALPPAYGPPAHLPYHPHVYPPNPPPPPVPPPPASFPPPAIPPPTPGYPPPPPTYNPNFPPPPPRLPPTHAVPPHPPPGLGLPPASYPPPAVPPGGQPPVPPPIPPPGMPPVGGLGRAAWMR
Method: as §1, §2, §3

[5] = tested on: A673 cells; experiment: Inhibition of proliferation of A673 cells (CyQUANT, 72 hour); type: cell-based, human; details: read-out: Inhibition of Proliferation of A673 Cells (calculated IC50)
Method: A673 Cells: A673 cells are a cell line derived from human muscle Ewing's sarcoma. Representative compounds of the invention were tested at different concentrations (from 4 μM to […]; 0.5 log serial dilutions) for their ability to inhibit the proliferation of A673 cells. Known CDK inhibitors dinaciclib or N-((1S,3R)-3-((5-chloro-4-(1H-indol-3-yl)pyrimidin-2-yl)amino)cyclohexyl)-5-((E)-4-(dimethylamino)but-2-enamido)picolinamide and triptolide were used as positive controls. Cells were grown in Dulbecco's Modified Eagle's Medium, +10% FBS+1 mM Sodium Pyruvate. The cells were cultured at 37° C. in a humidified chamber in the presence of 5% CO2. Proliferation assays were conducted over a 72 hour time period. CyQUANT® (Life Technologies, Chicago, Ill. USA) was used to assess the anti-proliferative effects of the compounds following manufacturer's directions and utilizing the reagents supplied with the CyQUANT® kit.

IC50 [1] [nM]	IC50 [2] [nM]	IC50 [3] [nM]	IC50 [4] [nM]	Compound	IC50 [5] [nM]
200 to 5000	20 to 200	200 to 5000	≥ 5000	CCOP(=O)(OCC)c1ccc2[nH]cc(-c3nc(NC4CCCNC4)ncc3C(F)(F)F)c2c1 (centres unmarked) [Compound 183]	200 to 5000
200 to 5000	< 20	200 to 5000	200 to 5000	N#Cc1ccc2c(-c3nc(NC4CCCNC4)ncc3C(F)(F)F)c[nH]c2c1C#N (centres unmarked) [Compound 258]	20 to 200
200 to 5000	< 20	200 to 5000	200 to 5000	FC(F)(F)c1cnc(N[C@H]2CCCNC2)nc1-c1c[nH]c2ccc(Cl)cc12 [Compound 160]	< 20
200 to 5000	< 20	200 to 5000	200 to 5000	Fc1cccc2c(-c3nc(N[C@H]4CCCNC4)ncc3C(F)(F)F)n[nH]c12 [Compound 156]	< 20
200 to 5000	< 20	200 to 5000	200 to 5000	FC(F)(F)c1cnc(N[C@H]2CCCNC2)nc1-c1c[nH]c2ccc(-c3ccnnc3)cc12 [Compound 230]	20 to 200
200 to 5000	< 20	200 to 5000	20 to 200	FC(F)(F)c1cnc(NC2CCCNC2)nc1-c1c[nH]c2c(Cl)cccc12 (centres unmarked) [Compound 167]	< 20
≥ 5000	200 to 5000	≥ 5000	≥ 5000	CC1(C)CCNC[C@H]1Nc1ncc(C(F)(F)F)c(-c2c[nH]c3ccccc23)n1 [Compound 210]	200 to 5000
≥ 5000	200 to 5000	≥ 5000	≥ 5000	COc1cnc(N[C@H]2CCCNC2)nc1-c1c[nH]c2ccccc12 [Compound 189]	200 to 5000
–	20 to 200	200 to 5000	200 to 5000	FC(F)(F)c1cnc(NC2CCCNC2)nc1-c1c[nH]c2c(-c3ccncc3)cccc12 (centres unmarked) [Compound 162]	< 20
200 to 5000	20 to 200	200 to 5000	200 to 5000	CC1CCNCC1Nc1ncc(Cl)c(-c2c[nH]c3ccccc23)n1 (centres unmarked) [Compound 126]	–
200 to 5000	< 20	200 to 5000	200 to 5000	Fc1cc2[nH]nc(-c3nc(NC4CCCNC4)ncc3C(F)(F)F)c2cc1F (centres unmarked) [Compound 152]	< 20
≥ 5000	< 20	≥ 5000	200 to 5000	N#Cc1cn(-c2ccc3c(-c4nc(NC5CCCNC5)ncc4C(F)(F)F)c[nH]c3c2)cn1 (centres unmarked) [Compound 249]	20 to 200
200 to 5000	20 to 200	200 to 5000	200 to 5000	FC(F)(F)c1cnc(NC2CNCC(c3nnc4ccccn34)C2)nc1-c1c[nH]c2ccccc12 (centres unmarked) [Compound 266]	20 to 200
200 to 5000	20 to 200	≥ 5000	200 to 5000	CNC(=O)C1CNCC(Nc2ncc(C(F)(F)F)c(-c3c[nH]c4ccccc34)n2)C1 (centres unmarked) [Compound 256]	200 to 5000
200 to 5000	< 20	200 to 5000	20 to 200	CC1CNCC(Nc2ncc(Cl)c(-c3c[nH]c4ccccc34)n2)C1 (centres unmarked) [Compound 201]	< 20
200 to 5000	200 to 5000	200 to 5000	200 to 5000	Clc1cnc(NC2CCCNC2)nc1-c1c[nH]c2ccccc12 (centres unmarked) [Compound 101]	20 to 200
200 to 5000	< 20	200 to 5000	20 to 200	Cc1cccc2c(-c3nc(NC4CCCNC4)ncc3C(F)(F)F)c[nH]c12 (centres unmarked) [Compound 124]	< 20
≥ 5000	200 to 5000	≥ 5000	≥ 5000	Clc1cnc(NC2CCCNC2)nc1-c1c[nH]c2ccc(N3CCOCC3)cc12 (centres unmarked) [Compound 151]	20 to 200
200 to 5000	20 to 200	200 to 5000	200 to 5000	CCCCCc1ccc2c(-c3nc(N[C@@H]4CCCNC4)ncc3C(F)(F)F)c[nH]c2c1 [Compound 241]	20 to 200
200 to 5000	< 20	200 to 5000	200 to 5000	Cc1nn(C)cc1-c1cccc2c(-c3nc(NC4CCCNC4)ncc3C(F)(F)F)c[nH]c12 (centres unmarked) [Compound 171]	< 20

IC50 [1] [nM]	IC50 [2] [nM]	IC50 [3] [nM]	IC50 [4] [nM]	Compound	IC50 [5] [nM]
200 to 5000	< 20	200 to 5000	200 to 5000	CCC1CCC(Nc2ncc(C(F)(F)F)c(-c3c[nH]c4ccccc34)n2)CN1 (centres unmarked) [Compound 217]	20 to 200
20 to 200	< 20	200 to 5000	20 to 200	Brc1cnc(N[C@@H]2CCCNC2)nc1-c1c[nH]c2ccccc12 [Compound 133]	< 20
200 to 5000	< 20	200 to 5000	200 to 5000	CC(=O)c1cccc2c(-c3nc(NC4CCCNC4)ncc3Cl)c[nH]c12 (centres unmarked) [Compound 142]	< 20
≥ 5000	200 to 5000	≥ 5000	≥ 5000	CC1(Nc2ncc(Cl)c(-c3c[nH]c4ccccc34)n2)CCCNC1 (centres unmarked) [Compound 115]	200 to 5000
200 to 5000	< 20	200 to 5000	200 to 5000	FC(F)(F)c1cnc(N[C@H]2CCCNC2)nc1-c1c[nH]c2cc(-n3ccnc3)ccc12 [Compound 248]	–
≥ 5000	< 20	≥ 5000	200 to 5000	CC1(O)CCN(C(=O)c2ccc3c(-c4nc(NC5CCCNC5)ncc4C(F)(F)F)c[nH]c3c2)C1 (centres unmarked) [Compound 220]	–
–	≥ 5000	–	≥ 5000	Clc1cnc(NC2(c3ccccc3)CCCNC2)nc1-c1c[nH]c2ccccc12 (centres unmarked) [Compound 130]	200 to 5000
–	20 to 200	–	200 to 5000	CC1CCC(Nc2ncc(Cl)c(-c3c[nH]c4ccccc34)n2)CN1 (centres unmarked) [Compound 129]	20 to 200
≥ 5000	≥ 5000	≥ 5000	≥ 5000	CCC1(Nc2ncc(Cl)c(-c3c[nH]c4ccccc34)n2)CCCNC1 (centres unmarked) [Compound 128]	–
200 to 5000	20 to 200	200 to 5000	200 to 5000	CC1(O)CCC(c2cccc3c(-c4nc(NC5CCCNC5)ncc4C(F)(F)F)c[nH]c23)CC1 (centres unmarked) [Compound 193]	–
–	–	–	–	CCc1cnc(N[C@H]2CCCNC2)nc1-c1c[nH]c2cc(S(C)(=O)=O)ccc12 [Compound 271]	200 to 5000
≥ 5000	20 to 200	≥ 5000	≥ 5000	CCc1cnc(NC2CCCNC2)nc1-c1c[nH]c2c(S(=O)O)cccc12 (centres unmarked) [Compound 363]	–
–	20 to 200	200 to 5000	200 to 5000	FC(F)(F)c1cnc(NC2CCCNC2)nc1-c1c[nH]c2c(Br)cccc12 (centres unmarked) [Compound 163]	20 to 200
–	20 to 200	200 to 5000	200 to 5000	Cn1cc(-c2cccc3c(-c4nc(NC5CCCNC5)ncc4C(F)(F)F)c[nH]c23)cn1 (centres unmarked) [Compound 164]	< 20
≥ 5000	200 to 5000	≥ 5000	200 to 5000	CCc1cnc(NC2CCCNC2)nc1-c1n[nH]c2ccc(C)cc12 (centres unmarked) [Compound 120]	–
–	–	–	–	CSc1cnc(NC2CCCNC2)nc1-c1c[nH]c2cc(C#N)ccc12 (centres unmarked) [Compound 272]	20 to 200
–	–	–	–	FC(F)(F)c1cnc(NC2CNCC(c3nnc4ccccn34)C2)nc1-c1c[nH]c2ccccc12 (centres unmarked) [Compound 268]	200 to 5000
≥ 5000	20 to 200	≥ 5000	≥ 5000	CCc1cnc(N[C@H]2CCCNC2)nc1-c1c[nH]c2c(S(=O)(=O)O)cccc12 [Compound 362]	–
200 to 5000	20 to 200	≥ 5000	200 to 5000	CC(C)C1CCC(Nc2nccc(-c3c[nH]c4ccccc34)n2)CN1 (centres unmarked) [Compound 237]	–
